Where a SMILES comes first, the peptide text is derived from it. The star is where a group is joined. AMC = Cc1cc(=O)oc2cc(N*)ccc12
Target: T1, hr‐granzyme B (Homo sapiens, UniProt P10144)
T1 construct: in the absence and presence of active human recombinant (hr)‐granzyme B
Experiment: Time-course signal-to-noise ratios after reaction with granzyme B
Assay type: biochemical
Conditions: probe 25 μM, hr-granzyme B 20 nM, aqueous buffer, 37 °C, over 30 minutes; mean ± SEM, n=6
Protocol: In vitro characterisation assays. Enzymatic assays were run in a 384-well format in a PCR opaque microplate (Thermo Scientific). All experiments were performed at least in triplicate. Dilutions and reactions using human GZM B and human neutrophil elastase were prepared in 50 mM Tris-HCl and 100 mM NaCl (pH 7.4). GZM A assays were performed in 25 mM HEPES, 0.1% CHAPS and 10 mM DTT (pH 7.5). Dilutions and incubations with CASP8 and CASP9 were prepared in 50 mM HEPES, 100 mM NaCl, 0.1% Triton X-100, 10 mM DTT, 1 mM EDTA and 10% glycerol (pH 7.4). Any other tested biomolecules were prepared in PBS. Proteolytic activity was determined by calculating the fold change in chemiluminescence signal (or fluorescence signal in the case of Ac - IEPD-AMC) over background signal provided by the corresponding dilution of the probes with the enzyme using a spectrophotometer (Synergy H1 Hybrid Reader, BioTek) at 37°C.
Unless otherwise stated, probes were utilized at a concentration of 100 μM. Enzyme concentration used: 20 nM (except CASP9, which was used at 200 nM) and all other biomolecules were tested at 100 μM. In the case where an inhibitor was used, the enzyme was pre-incubated for 1 h with the inhibitor (100 µM) before addition of probe 1.
Cell culture. […]

T1 sequence (P10144 21-247): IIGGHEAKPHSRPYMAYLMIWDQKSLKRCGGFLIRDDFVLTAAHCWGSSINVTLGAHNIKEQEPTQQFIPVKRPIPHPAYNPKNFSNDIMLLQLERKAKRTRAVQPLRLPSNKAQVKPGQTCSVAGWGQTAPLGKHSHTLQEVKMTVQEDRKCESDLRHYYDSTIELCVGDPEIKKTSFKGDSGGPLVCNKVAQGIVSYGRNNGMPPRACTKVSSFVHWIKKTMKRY

Signal‐to‐noise (S/N) ratio, fluorescence: under 5
Structure (SMILES): CC[C@H](C)[C@H](NC(C)=O)C(=O)N[C@@H](CCC(=O)O)C(=O)N1CCC[C@H]1C(=O)N[C@@H](CC(=O)O)C(=O)Nc1ccc2c(C)cc(=O)oc2c1 [Ac‐IEPD‐AMC] (Ac-IEPD-{AMC})
